These results are taken from patent US20220323391A1, “COMBINATION OF A CHEMOTHERAPEUTIC AGENT AND ALPHA-LACTOGLUBULIN-OLEIC ACID COMPLEX FOR CANCER THERAPY” (HAMLET PHARMA AB, priority 2019, published 2022).

Each structure is given as a SMILES string. Entries after “also recorded” stand apart in the source; their conditions may differ.

This test deals with MB49 mouse bladder carcinoma cells. The test can be described thus: murine MB49 bladder cancer model, intravesical treatment. Conditions: for Tumor growth / tumor progression (bladder weight, bladder size, tumor size) compared to sham treated mice: chemotherapeutic agent alone, 25 μg intravesical, days 3, 5, 7, 9 and 11; for Tumor growth / tumor recurrence at long-term follow up: single agent (alpha1-oleate 1.7 mM, or MMC or Epirubicin 25 μg), after 4 weeks. Format: in vivo. On the procedure: MB49 (RRID:CVCL_7076) cells were provided by Sara Mangsbo, Uppsala University, Sweden. […] C57BL/6 female mice were bred at the Department of Laboratory Medicine, Lund University and used at ages from 7 to 12 weeks. […] On day 0, the bladder was emptied and preconditioned by intravesical instillation of 100 μl of poly-L-lysine solution (0.1 mg/ml) through a soft polyethylene catheter (Clay Adams) with an outer diameter of 0.61 mm. After 30 minutes, MB49 mouse bladder carcinoma cells (2×10^5 cells in 50 μl media) were instilled. On days 3, 5, 7, 9 and 11, mice were randomly assigned and instilled to the alpha1-oleate (1.7 mM or 8.5 mM), chemotherapeutic drugs (MMC 25 μg, epirubicin 25 μg), combination of alpha1-oleate with chemotherapeutic agent or sham PBS treatment group. The catheter was left in place for about one minute, but as the mice remained under anesthesia, the time to voiding (dwelling time) of the substance was 2-3 hours. Groups of 5-6 mice for each treatment and control were sacrificed at day 12. Follow up groups of 5-8 mice were sacrificed at week 4 and week 8. Bladders were imaged and processed for histology or RNA extraction. Two independent experiments were performed for each condition. All experiments were performed with mycoplasma-free cells.
Bladders were embedded in O.C.T. compound (VWR), and successive 5 μm sections were collected from the center of each bladder and placed on positively-charged microscope slides (Superfrost/Plus; Thermo Fisher Scientific). […] Images was captured using the AX10 microscope (Carl Zeiss). The tumor circumferences were measured for analysis of the tumor area using ImageJ software.
The effects of alpha1-oleate and Mitomycin C were investigated in the murine MB49 bladder cancer model (for study design see FIG. 19A). Bladder cancer was established by intra-vesical instillation of MB49 cells and treatment was initiated on day 3. The treatment group received alpha1-oleate (1.7 mM or 8.5 mM), MMC (0.1 mL, 25 ug/dose) or a combination of alpha1-oleate (1.7 mM or 8.5 mM) with MMC (0.1 mL, 25 ug/dose). Instillations were performed on days 3, 5, 7, 9 and 11 and sham treated mice received PBS. Bladders were harvested at sacrifice on day 12 and tumor development was quantified as bladder weight, bladder size, tumor size and pathology score (FIG. 21c-f).

`COc1cccc2c1C(=O)c1c(O)c3c(c(O)c1C2=O)C[C@@](O)(C(=O)CO)C[C@@H]3O[C@H]1C[C@H](N)[C@@H](O)[C@H](C)O1` [Epirubicin]: the “Tumor growth / tumor recurrence at long-term follow up” value is recorded as “Evidence of tumor recurrence; also recorded: showed an increase in tumor growth”. For the same molecule, for the setting “Epirubicin 25 μg vs alpha1-oleate 1.7 mM, day 12, p=0.97”, the “Therapeutic effect of Epirubicin alone relative to alpha1-oleate” value is listed as “comparable to that of alpha1-oleate”. The “Tumor growth / tumor progression (bladder weight, bladder size, tumor size) compared to sham treated mice” value (day 12) is listed as “Tumor progression was delayed; also recorded: reduction in tumor size”.
Turning to `CO[C@@]12[C@H](COC(N)=O)C3=C(C(=O)C(C)=C(N)C3=O)N1C[C@@H]1N[C@@H]12` [Mitomycin C], the “Tumor growth / tumor progression (bladder weight, bladder size, tumor size) compared to sham treated mice” value reads like this: (day 12) “Tumor progression was delayed”; (day 12, listed as MMC) “reduction in tumor size”; (day 12, listed as mitomycin) “attenuated to a similar extent”. In addition, the “Tumor growth / tumor recurrence at long-term follow up” value (listed as MMC) is “Evidence of tumor recurrence; also recorded: showed an increase in tumor growth”.
